Laboratory results from PMC12693396, “Discovery of Influenza Neuraminidase Inhibitors: Structure-Based Virtual Screening and Biological Evaluation of Novel Chemotypes” (Molecules, 2025).
pIC50: −log10 of the molar value.

Experiments:
[1] = biological target: recombinant Influenza A H1N1 (A/California/04/2009) neuraminidase (Influenza A virus (A/California/04/2009(H1N1)), UniProt C3W5S3); experiment: Fluorometric MUNANA neuraminidase inhibition assay (NA-Fluor kit); assay type: biochemical
[2] = in vitro; settings: human

Structure (SMILES) | CC50 at 24 h [2] | other results
O=C(O)C1CCCN(C(=O)c2c[nH]c3ccccc23)C1 (stereo not shown) [Compound 1, 1-(1H-Indol-3-ylcarbonyl)-3-piperidinecarboxylic acid] | – | pIC50 [1]: < 3.00; inhibition at 100 µM ([1]; read-out: mean inhibition of NA activity, at 100 µM): > 15%
O=C(O)CCC(=O)c1c[nH]c2ccccc12 [Compound 3, γ-Oxo-1H-indole-3-butanoic acid] | 671 µM | –
COc1cccc2[nH]cc(C(=O)O)c12 [Compound 4, 4-Methoxy-1H-indole-3-carboxylic acid] | 244 µM | –
COc1ccc([C@H]2[C@@H](C(=O)O)c3ccccc3C(=O)N2Cc2ccc(Cl)cc2)cc1 [Compound 5, (3R,4S)-2-[(4-Chlorophenyl)methyl]-1,2,3,4-tetrahydro-3-(4-methoxyphenyl)-1-oxo-4-isoquinolinecarboxylic acid] | 152 µM | –
COc1cc2c(cc1OC)C(C(C)C)N(S(N)(=O)=O)CC2 (stereo not shown) [Compound 6, 3,4-Dihydro-6,7-dimethoxy-1-(1-methylethyl)-2(1H)-isoquinolinesulfonamide] | 534 µM | –
CCOC(=O)C1=C[C@@H](OC(CC)CC)[C@H](NC(C)=O)[C@@H](N)C1 [oseltamivir, Oseltamivir phosphate, reference compound] | – | inhibition of NA activity ([1]; 0.1 µM): approximately 20%
